Source: ChEMBL document CHEMBL4627252, “Synthesis and biological evaluation of bis-N2,N2'-(4-hydroxycoumarin-3-yl)ethylidene]-2,3-dihydroxysuccinodihydrazides” (Bioorg Med Chem Lett, 2020)
In brackets after ≈: the same amount, converted by molar mass.

How the values were obtained:
[1] = biological target: Human immunodeficiency virus type 1 protease (Human immunodeficiency virus 1) (UniProt Q72874); experiment: Inhibition of HIV-1 protease at 20 uM relative to control
[2] = Cytotoxicity against human HeLa cells assessed as cell viability at 20 uM incubated for 24 hrs by resazurin dye base fluorescence analysis relative to control; type: cell-based; settings: read-out: Activity
[3] = system: Mycobacterium tuberculosis; experiment: Antimycobacterial activity against Mycobacterium tuberculosis H37Rv assessed as inhibition of bacterial growth by measuring calculated MIC90 measured after 14 days by green fluorescent protein based microplate assay; type: functional; settings: 336 h
[4] = system: Trypanosoma brucei brucei; experiment: Antitrypanosomal activity against Trypanosoma brucei brucei assessed as parasite viability at 20 uM relative to control; type: functional
[5] = system: Mycobacterium tuberculosis; experiment: Antimycobacterial activity against Mycobacterium tuberculosis H37Rv assessed as inhibition of bacterial growth by measuring visual MIC90 measured after 14 days by green fluorescent protein based microplate assay; type: functional; settings: 336 h
[6] = system: Plasmodium falciparum; experiment: Antimalarial activity against Plasmodium falciparum 3D7 infected in human erythrocytes assessed as parasite viability at 20 uM incubated for 48 hrs by parasite LDH release based colorimetric assay relative to control; type: functional
[7] = biological target: Human immunodeficiency virus type 1 integrase (Human immunodeficiency virus 1, UniProt Q7ZJM1); experiment: Inhibition of HIV-1 integrase
[8] = system: HeLa; experiment: Cytotoxicity against human HeLa cells assessed as inhibition of cell viability incubated for 24 hrs by resazurin dye based fluorescence analysis
[9] = system: Trypanosoma brucei brucei; experiment: Antitrypanosomal activity against Trypanosoma brucei brucei assessed as inhibition of parasite viability; type: functional, organism-based

Chain of Human immunodeficiency virus type 1 integrase (Q7ZJM1 whole entry): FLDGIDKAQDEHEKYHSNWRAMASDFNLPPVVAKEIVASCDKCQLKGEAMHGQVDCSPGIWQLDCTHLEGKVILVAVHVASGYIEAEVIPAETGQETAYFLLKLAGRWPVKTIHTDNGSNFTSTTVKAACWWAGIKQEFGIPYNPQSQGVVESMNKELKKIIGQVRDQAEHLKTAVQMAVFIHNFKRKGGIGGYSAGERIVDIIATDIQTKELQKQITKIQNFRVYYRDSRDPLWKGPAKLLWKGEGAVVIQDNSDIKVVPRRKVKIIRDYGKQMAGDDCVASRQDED

## C/C(=N\NC(=O)C(O)C(O)C(=O)N/N=C(\C)c1c(O)c2cc(C)ccc2oc1=O)c1c(O)c2cc(C)ccc2oc1=O (racemic)
[1]
  inhibition: 8.3%
[2]
  viability at 24 h, 20 µM: 85.3%
[3]
  MIC90: > 125 µM
[4]
  Activity: 100%
[5]
  MIC90: > 125 µM
[6]
  Activity: 100%

## C/C(=N\NC(=O)C(O)C(O)C(=O)N/N=C(\C)c1c(O)c2cc(F)ccc2oc1=O)c1c(O)c2cc(F)ccc2oc1=O (racemic)
[1]
  inhibition: 0%
[2]
  viability at 24 h, 20 µM: 84.6%
[3]
  MIC90: > 125 µM
[4]
  Activity: 32.8%
[5]
  MIC90: > 125 µM
[6]
  Activity: 92.8%

## COc1ccc2oc(=O)c(/C(C)=N/NC(=O)C(O)C(O)C(=O)N/N=C(\C)c3c(O)c4cc(OC)ccc4oc3=O)c(O)c2c1 (racemic)
[1]
  inhibition: 0%
[2]
  viability at 24 h, 20 µM: 84.6%
[3]
  MIC90: > 125 µM
[4]
  Activity: 100%
[5]
  MIC90: > 125 µM
[6]
  Activity: 100%

## C/C(=N\NC(=O)C(O)C(O)C(=O)N/N=C(\C)c1c(O)c2ccccc2oc1=O)c1c(O)c2ccccc2oc1=O (racemic)
[1]
  inhibition: 0%
[2]
  viability at 24 h, 20 µM: 78.4%
[3]
  MIC90: > 125 µM
[4]
  Activity: 42.7%
[5]
  MIC90: > 125 µM
[7]
  IC50: 3500 nM
[6]
  Activity: 90.7%

## C/C(=N\NC(=O)C(O)C(O)C(=O)N/N=C(\C)c1c(O)c2cc(Br)ccc2oc1=O)c1c(O)c2cc(Br)ccc2oc1=O (racemic)
[1]
  inhibition: 0%
[2]
  viability at 24 h, 20 µM: 100%
[3]
  MIC90: 18.9 µM (≈ 13.4 µg/mL)
[4]
  Activity: 100%
[5]
  MIC90: 15.6 µM (≈ 11.1 µg/mL)
[6]
  Activity: 100%

## C/C(=N\NC(=O)C(O)C(O)C(=O)N/N=C(\C)c1c(O)c2cc(Cl)ccc2oc1=O)c1c(O)c2cc(Cl)ccc2oc1=O (racemic)
[1]
  inhibition: 0%
[2]
  viability at 24 h, 20 µM: 100%
[3]
  MIC90: 54.2 µM (≈ 33.6 µg/mL)
[4]
  Activity: 44.6%
[5]
  MIC90: 31.2 µM (≈ 19.4 µg/mL)
[6]
  Activity: 93.8%

## C/C(=N\NC(=O)C(O)C(O)C(=O)N/N=C(\C)c1c(O)c2c(ccc3ccccc32)oc1=O)c1c(O)c2c(ccc3ccccc32)oc1=O (racemic)
[1]
  inhibition: 0%
[2]
  viability at 24 h, 20 µM: 98.1%
[3]
  MIC90: 29.5 µM (≈ 19.2 µg/mL)
[4]
  Activity: 100%
[5]
  MIC90: 31.2 µM (≈ 20.3 µg/mL)
[6]
  Activity: 100%

## CC[C@H]1CN2CCc3cc(OC)c(OC)cc3[C@@H]2C[C@@H]1C[C@H]1NCCc2cc(OC)c(OC)cc21 [EMETINE]
[8]
  IC50: 13 nM

## N=C(N)c1ccc(OCCCCCOc2ccc(C(=N)N)cc2)cc1 [PENTAMIDINE]
[9]
  IC50: 39 nM

## CO[C@H]1/C=C/O[C@@]2(C)Oc3c(C)c(O)c4c(O)c(c(/C=N/N5CCN(C)CC5)c(O)c4c3C2=O)NC(=O)/C(C)=C\C=C\[C@H](C)[C@H](O)[C@@H](C)[C@@H](O)[C@@H](C)[C@H](OC(C)=O)[C@@H]1C [RIFAMPIN]
[3]
  MIC90: 0.007 µM (≈ 0.00576 µg/mL)
[5]
  MIC90: 0.019 µM (≈ 0.0156 µg/mL)
